Experimental data: patent publication US7772252B2, “Heterocyclic substituted carbonyl derivatives and their use as dopamine D3 receptor ligands” (Aventis Pharmaceuticals Inc., priority 2001, dated 2010)

Target: T1, cloned human alpha-1A adrenergic receptors (α1a) (Homo sapiens, UniProt P35348)
T1 construct: expressed in transfected cells; membranes
T1 sequence (P35348 1-466): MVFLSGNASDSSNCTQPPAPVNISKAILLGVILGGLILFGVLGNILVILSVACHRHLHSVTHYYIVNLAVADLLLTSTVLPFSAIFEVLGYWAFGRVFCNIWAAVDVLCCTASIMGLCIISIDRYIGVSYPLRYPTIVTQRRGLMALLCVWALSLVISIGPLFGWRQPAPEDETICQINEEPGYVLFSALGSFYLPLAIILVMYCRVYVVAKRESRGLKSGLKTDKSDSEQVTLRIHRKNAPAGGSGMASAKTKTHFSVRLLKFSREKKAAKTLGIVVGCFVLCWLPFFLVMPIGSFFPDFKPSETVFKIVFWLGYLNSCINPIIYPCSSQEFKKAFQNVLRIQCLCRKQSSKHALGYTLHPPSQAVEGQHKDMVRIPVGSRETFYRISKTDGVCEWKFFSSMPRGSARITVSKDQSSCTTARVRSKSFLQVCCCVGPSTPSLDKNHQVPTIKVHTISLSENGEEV
Test: [3H]Prazosin binding to cloned human alpha-1A adrenergic receptors expressed in CHO cells
Conditions: read-out: halpha1Ki (nM) h = human
Text: ^3H]Prazosin Binding to Cloned Human Alpha-1A Adrenergic Receptors (α1a) Expressed in Chinese Hamster Ovary Cells (CHO)
• Purpose: This in vitro assay is designed as a screen to identify compounds displaying a affinity for the human α1a adrenoceptor subtype expressed in the membrane fragments of CHO cells. The assay measures the ability of the test compounds to displace [^3H] prazosin from α1a sites. • The identification of multiple vascular α1-addrenoceptors (α1a, α1b, α1d) in vitro has provided impetus to define the role(s) of these subtypes in cardiovascular regulation in vivo (Vargas and Gorman, 1995). […] Prazosin is a potent antagonist of the human α1a-adrenoceptor subtype, which has been cloned and is expressed in the membrane fragments of CHO cells. • hα1a receptor: The cloning of the human α1a cDNA was accomplished first by screening a human prostate cDNA library (Clontech), from which a portion of the coding region was obtained. This DNA fragment was then used to screen a human leukocyte genomic library (Clontech), and the rest of the coding sequence was obtained. Later these two fragments were spliced together. The entire coding sequence was then fully sequenced including matching PCR sequence with original genomic coding sequence, thus ensuring splice sites were joined correctly (Schwinn et al., 1995). Once sequenced, the gene was subcloned into the expression vector pcDNA3 (Invitrogen). Plasmid DNA was then used for transfection into CHO cells and G418 resistant clones were isolated. A clone expressing high levels of the hα1a receptor (as determined by mRNA and receptor binding data) was chosen and pharmacologically characterized. • Culture Media Ingredients for Adherent α1a expressing CHO Culture: • A. HAM's F-12 (Celigro) • B. 10% 0.2 micron filtered Fetal Bovine Serum (FBS)(Celigro) • C. 1% 0.2 micron filtered Penicillin-Streptomycin (Celigro) • D. G418 0.2 micron filtered (Geneticin 400 μg/ml)(Celigro) • Cells are cultured using established methods and procedures in either 150×25 mm culture plates (scale up to 100 plates) or a combination of these plates and 70 roller bottles. One culturing/harvest cycle typically requires 2 weeks and yields between 100-400 mg protein. Plates or bottles are incubated at 37° C.+5% CO2. • Storage: Cells are harvested by mechanical scraping, washed using PBS, collected in 250 ml Corning polypropylene centrifuge tubes, spun down (1500 RPM) and resuspended in dH2O 10% DMSO (final volume per harvest is approximately 50 ml). Protein determination is made using the Biorad DC Assay Kit. Finally, the appropriate volume is aliquoted into a 2 ml Corning Cryovial (10 mg/1-1.5 ml) which is stored at −80° C.
• Assay Requirement: 0.5 cryovials per 96 well plate (assay volume=200 μl/well) • [^3H]-Ligand: [7-methoxy-^3H]-Prazosin: 1.0 nM (NEN, NET-823) • 70-87 Ci/mmol • Materials: Phentolamine mesylate (Research Biochemicals Int. #P-131) • 96 well flat bottom plates (Beckman) • Unifilter GF/B Plate (Packard) • Polyethylenimine (Sigma #P-3134) • TomTec or Packard Filtermate 196 Cell Harvesters • Packard TopCount Scintillation Counter • Buffers: A: 50 mM Tris HCl; 0.1% ascorbate, pH 7.7 (incubation buffer) • B: 50 mM Tris HCl; pH 7.7 (wash buffer) • Procedure: Assay additions are as follows (in the order indicated): • Total Binding=50 μl buffer A+50 μl [^3H]prazosin+100 μl membrane • Nonsp. Bd.=50 μl 10 μM phentolamine+50 μl [^3H]prazosin+100 μl membrane • Test Cpd.=50 μl compound+50 μl [^3H]prazosin+100 μl membrane • Compounds to be evaluated are weighed out to yield a 10 mM stock solution in DMSO in a 24 well polystyrene plate. This is diluted to a 0.5 mM stock in dH2O, Serial dilutions in Buffer A are made from which 50 μl additions to the plate are made in duplicate in order to achieve the final concentrations desired. Typically, one 96 well plate is used to evaluate 11 compounds at 4 concentrations (10^−6-10^−9 M) in duplicate. Total binding and nonspecific binding are determined in quadruplicate. […]

Row | SMILES | Ki [nM]
1 | CC1CCCN(C(=O)CCCN2CCN(c3csc4cc(F)ccc34)CC2)C1 (stereo not drawn) [compound 826855] | 0.889
2 | O=C(CCCN1CCN(c2csc3cc(C(F)(F)F)ccc23)CC1)N1CCC(N2CCCC2)CC1 [compound 826816] | 249
3 | CCOC(=O)C1CCN(C(=O)CCCN2CCN(c3csc4cc(C(F)(F)F)ccc34)CC2)CC1 [compound 826811] | 223
4 | O=C(CCCN1CCN(c2csc3cc(C(F)(F)F)ccc23)CC1)NC1CCCC1 [compound 826820] | 129
5 | CC1CC(C)CN(C(=O)CCCN2CCN(c3csc4cc(C(F)(F)F)ccc34)CC2)C1 (stereo not drawn) [compound 826818] | 124
6 | CC1CCCCN1C(=O)CCCN1CCN(c2csc3cc(C(F)(F)F)ccc23)CC1 (stereo not drawn) [compound 826813] | 57
7 | O=C(CCCN1CCN(c2csc3cc(F)ccc23)CC1)N1CCC(N2CCCC2)CC1 [compound 826856] | 15.3
8 | CCOC(=O)C1CCN(C(=O)CCCN2CCN(c3csc4cc(F)ccc34)CC2)CC1 [compound 826851] | 18.9
9 | CN(C(=O)CCCN1CCN(c2csc3cc(C(F)(F)F)ccc23)CC1)C1CCCCC1 [compound 826808] | 126
10 | O=C(CCCN1CCN(c2csc3cc(C(F)(F)F)ccc23)CC1)NC1CCCCC1 [compound 826821] | 1280
11 | C[C@H]1CC[C@H](NC(=O)CCCN2CCN(c3csc4cc(F)ccc34)CC2)CC1 [compound 826844] | 23.4
12 | CN(C(=O)CCCN1CCN(c2csc3cc(F)ccc23)CC1)C1CCCCC1 [compound 826848] | 12.3
13 | CC1CCCC(NC(=O)CCCN2CCN(c3csc4cc(C(F)(F)F)ccc34)CC2)C1 (racemic) [compound 826807] | 166000
14 | CC1CCN(C(=O)CCCN2CCN(c3csc4cc(C(F)(F)F)ccc34)CC2)CC1 [compound 826814] | 89.3
15 | CC1CCCCN1C(=O)CCCN1CCN(c2csc3cc(F)ccc23)CC1 (stereo not drawn) [compound 826853] | 0.258
16 | O=C(CCCN1CCN(c2csc3cc(F)ccc23)CC1)N1CCC(O)CC1 [compound 826852] | 6.16
17 | O=C(CCCN1CCN(c2csc3cc(C(F)(F)F)ccc23)CC1)N(CCO)C1CCCCC1 [compound 826810] | 200

Row | SMILES | Ki [nM]
18 | CC1CCCN1C(=O)CCCN1CCN(c2csc3cc(C(F)(F)F)ccc23)CC1 (stereo not drawn) [compound 826822] | 32.2
19 | O=C(CCCN1CCN(c2csc3cc(C(F)(F)F)ccc23)CC1)N1CCC(O)CC1 [compound 826812] | 658
20 | O=C(CCCN1CCN(c2csc3cc(C(F)(F)F)ccc23)CC1)N1CCCC1 [compound 826819] | 49
21 | O=C(CCCN1CCN(c2csc3cc(F)ccc23)CC1)N(CCO)C1CCCCC1 [compound 826850] | 28.4
22 | CC1CC(C)CN(C(=O)CCCN2CCN(c3csc4cc(F)ccc34)CC2)C1 (stereo not drawn) [compound 826858] | 9.42
23 | CC1CCN(C(=O)CCCN2CCN(c3csc4cc(F)ccc34)CC2)CC1 [compound 826854] | 0.0713
24 | CC[C@H]1CC[C@H](NC(=O)CCCN2CCN(c3csc4cc(F)ccc34)CC2)CC1 [compound 826846] | 93.9
25 | CCOC(=O)[C@H]1CC[C@H](NC(=O)CCCN2CCN(c3csc4cc(F)ccc34)CC2)CC1 [compound 826845] | 5.44
26 | O=C(CCCN1CCN(c2csc3cc(F)ccc23)CC1)NC1CCCCC1 [compound 826861] | 9.55
27 | O=C(CCCN1CCN(c2csc3cc(F)ccc23)CC1)N1CCCC1 [compound 826859] | 4
28 | CC1CCCN(C(=O)CCCN2CCN(c3csc4cc(C(F)(F)F)ccc34)CC2)C1 (stereo not drawn) [compound 826815] | 80.5
29 | CC1CCCN1C(=O)CCCN1CCN(c2csc3cc(F)ccc23)CC1 (stereo not drawn) [compound 826862] | 0.637
30 | CCN(C(=O)CCCN1CCN(c2csc3cc(F)ccc23)CC1)C1CCCCC1 [compound 826849] | 35.2
31 | CC1CCCC(NC(=O)CCCN2CCN(c3csc4cc(F)ccc34)CC2)C1 (stereo not drawn) [compound 826847] | 0.513
32 | O=C(CCCN1CCN(c2csc3cc(F)ccc23)CC1)NC1CCCC1 (racemic) [compound 826860] | 0.516
33 | CN(C)C1CCN(C(=O)CCCN2CCN(c3csc4cc(C(F)(F)F)ccc34)CC2)C1 (stereo not drawn) [compound 826823] | 148
